The results in this text go back to PubChem BioAssay AID1259407 (Chemical Carcinogenesis Research Information System (CCRIS), 2018).

The subject of this data set is CCRIS mutagenicity, Ames/micronucleus/aberration tests. The data set is described as follows: CCRIS mutagenicity studies.
The mark [1] stands for this setting: Test System: AMES SALMONELLA TYPHIMURIUM, Strain/Indicator: TA97, Metabolic Activation: NONE, Method: PREINCUBATION
Where [2] appears, read: Test System: AMES SALMONELLA TYPHIMURIUM, Strain/Indicator: TA98, Metabolic Activation: NONE, Method: PREINCUBATION
Where [3] appears, read: Test System: AMES SALMONELLA TYPHIMURIUM, Strain/Indicator: TA100, Metabolic Activation: NONE, Method: PREINCUBATION
Where [4] appears, read: Test System: AMES SALMONELLA TYPHIMURIUM, Strain/Indicator: TA1535, Metabolic Activation: NONE, Method: PREINCUBATION
The mark [5] stands for this setting: Test System: AMES SALMONELLA TYPHIMURIUM, Strain/Indicator: TA1537, Metabolic Activation: NONE, Method: PREINCUBATION

Activity calls are given as the source filed them. The rule behind the calls is not given here.

For `COC(=O)[C@H]1[C@H]2C[C@@H]3c4[nH]c5cc(OC)ccc5c4CCN3C[C@H]2C[C@@H](OC(=O)/C=C/c2cc(OC)c(OC)c(OC)c2)[C@@H]1OC`, the mutagenic call runs as follows: (Test System: AMES SALMONELLA TYPHIMURIUM, Strain/Indicator: TA97, Metabolic Activation: HAMSTER, LIVER, S-9, AROCLOR 1254 (10 OR 30%), Method: PREINCUBATION) “inactive; negative”; under setting [1], “inactive; negative”; (Test System: AMES SALMONELLA TYPHIMURIUM, Strain/Indicator: TA97, Metabolic Activation: RAT, LIVER, S-9, AROCLOR 1254 (10 OR 30%), Method: PREINCUBATION) “inactive; negative”; (Test System: AMES SALMONELLA TYPHIMURIUM, Strain/Indicator: TA98, Metabolic Activation: HAMSTER, LIVER, S-9, AROCLOR 1254 (10 OR 30%), Method: PREINCUBATION) “inactive; negative”; under setting [2], “inactive; negative”; (Test System: AMES SALMONELLA TYPHIMURIUM, Strain/Indicator: TA98, Metabolic Activation: RAT, LIVER, S-9, AROCLOR 1254 (10 OR 30%), Method: PREINCUBATION) “inactive; negative”. The mutagenic call (Test System: AMES SALMONELLA TYPHIMURIUM, Strain/Indicator: TA100, Metabolic Activation: HAMSTER, LIVER, S-9, AROCLOR 1254 (10 OR 30%), Method: PREINCUBATION) is “inactive; negative”; the mutagenic call under setting [3] is “inactive; negative”; the mutagenic call (Test System: AMES SALMONELLA TYPHIMURIUM, Strain/Indicator: TA100, Metabolic Activation: RAT, LIVER, S-9, AROCLOR 1254 (10 OR 30%), Method: PREINCUBATION) is “inactive; negative”; the mutagenic call (Test System: AMES SALMONELLA TYPHIMURIUM, Strain/Indicator: TA1535, Metabolic Activation: HAMSTER, LIVER, S-9, AROCLOR 1254 (10 OR 30%), Method: PREINCUBATION) was “inactive; negative”; the mutagenic call under setting [4] is “inactive; negative”; the mutagenic call (Test System: AMES SALMONELLA TYPHIMURIUM, Strain/Indicator: TA1535, Metabolic Activation: RAT, LIVER, S-9, AROCLOR 1254 (10 OR 30%), Method: PREINCUBATION) is “inactive; negative”. For the same compound, the mutagenic call is, setting by setting: (Test System: AMES SALMONELLA TYPHIMURIUM, Strain/Indicator: TA1537, Metabolic Activation: HAMSTER, LIVER, S-9, AROCLOR 1254 (30%), Method: PREINCUBATION) “inactive; negative”; under setting [5], “inactive; negative”; (Test System: AMES SALMONELLA TYPHIMURIUM, Strain/Indicator: TA1537, Metabolic Activation: RAT, LIVER, S-9, AROCLOR 1254 (30%), Method: PREINCUBATION) “inactive; negative”.

For `ClC[C@H](Br)CBr`, the mutagenic call (Test System: AMES SALMONELLA TYPHIMURIUM, Strain/Indicator: TA100, Metabolic Activation: RAT, LIVER, MICROSOMES, Method: PREINCUBATION) was “active; positive”.

In the case of `c1cc2c3c(cccc3c1)-c1c-2c2ccccc2c2ccccc12`, where the note is “Test System: HUMAN H1A1V2 CELLS, Strain/Indicator: TK LOCUS, Metabolic Activation: NONE, Method: SUSPENSION/PLATE”, the mutagenic call is “inactive; negative”.

Consider `CCOC(=O)CC(C)C`, for which the mutagenic call is, setting by setting: under setting [1], “inactive; negative”; (Test System: AMES SALMONELLA TYPHIMURIUM, Strain/Indicator: TA97, Metabolic Activation: RAT, LIVER, S-9, AROCLOR 1254, Method: PREINCUBATION) “inactive; negative”; (Test System: AMES SALMONELLA TYPHIMURIUM, Strain/Indicator: TA102, Metabolic Activation: NONE, Method: PREINCUBATION) “inactive; negative”; (Test System: AMES SALMONELLA TYPHIMURIUM, Strain/Indicator: TA102, Metabolic Activation: RAT, LIVER, S-9, AROCLOR 1254, Method: PREINCUBATION) “inactive; negative”.

As for `C=C(C#N)C(=O)OCC(C)C`, the mutagenic call is “inactive; negative” (Test System: AMES SALMONELLA TYPHIMURIUM, Strain/Indicator: TA100, Metabolic Activation: NONE, Method: STANDARD PLATE) and “inactive; negative” (Test System: AMES SALMONELLA TYPHIMURIUM, Strain/Indicator: TA100, Metabolic Activation: RAT, LIVER, S-9, AROCLOR 1254, Method: STANDARD PLATE).

Turning to `O=[N+]([O-])c1ccnc2ccccc12`, the mutagenic call reads like this: (Test System: AMES SALMONELLA TYPHIMURIUM, Strain/Indicator: TA1538, Metabolic Activation: RAT, LIVER, S-9, KC500 OR PHENOBARBITAL, Method: LIQUID SUSPENSION) “active; positive”; (Test System: UDS RODENT PRIMARY CELLS, Strain/Indicator: THY INCORP (NON-S-PHASE), Metabolic Activation: NONE, Method: AUTORADIOGRAPHY) “active; positive”.

`O=C=Nc1ccc(Cc2ccc(N=C=O)cc2)cc1`: the mutagenic call is, setting by setting: (Test System: AMES SALMONELLA TYPHIMURIUM, Strain/Indicator: TA98, Metabolic Activation: HAMSTER, LIVER, S-9, AROCLOR 1254 (10%), Method: PREINCUBATION) “inactive; negative”; under setting [2], “inactive; negative”; (Test System: AMES SALMONELLA TYPHIMURIUM, Strain/Indicator: TA98, Metabolic Activation: RAT, LIVER, S-9, AROCLOR 1254 (10%), Method: PREINCUBATION) “inactive; negative”; (Test System: AMES SALMONELLA TYPHIMURIUM, Strain/Indicator: TA98, Metabolic Activation: RAT, LIVER, S-9, KC 500, Method: PREINCUBATION) “inactive; negative”; (Test System: AMES SALMONELLA TYPHIMURIUM, Strain/Indicator: TA100, Metabolic Activation: HAMSTER, LIVER, S-9, AROCLOR 1254 (10%), Method: PREINCUBATION) “inactive; negative”; under setting [3], “inactive; negative”. Further, the mutagenic call (Test System: AMES SALMONELLA TYPHIMURIUM, Strain/Indicator: TA100, Metabolic Activation: RAT, LIVER, S-9, AROCLOR 1254 (10%), Method: PREINCUBATION) is “inactive; negative”; the mutagenic call (Test System: AMES SALMONELLA TYPHIMURIUM, Strain/Indicator: TA100, Metabolic Activation: RAT, LIVER, S-9, KC 500, Method: PREINCUBATION) is “active; positive”; the mutagenic call (Test System: AMES SALMONELLA TYPHIMURIUM, Strain/Indicator: TA1535, Metabolic Activation: HAMSTER, LIVER, S-9, AROCLOR 1254 (10%), Method: PREINCUBATION) is “inactive; negative”; the mutagenic call under setting [4] was “inactive; negative”; the mutagenic call (Test System: AMES SALMONELLA TYPHIMURIUM, Strain/Indicator: TA1535, Metabolic Activation: RAT, LIVER, S-9, AROCLOR 1254 (10%), Method: PREINCUBATION) is “inactive; negative”; the mutagenic call (Test System: AMES SALMONELLA TYPHIMURIUM, Strain/Indicator: TA1535, Metabolic Activation: RAT, LIVER, S-9, KC 500, Method: PREINCUBATION) was “inactive; negative”. In addition, the mutagenic call was “inactive; negative” (Test System: AMES SALMONELLA TYPHIMURIUM, Strain/Indicator: TA1537, Metabolic Activation: HAMSTER, LIVER, S-9, AROCLOR 1254 (10%), Method: PREINCUBATION); “inactive; negative” under setting [5]; “inactive; negative” (Test System: AMES SALMONELLA TYPHIMURIUM, Strain/Indicator: TA1537, Metabolic Activation: RAT, LIVER, S-9, AROCLOR 1254 (10%), Method: PREINCUBATION); “inactive; negative” (Test System: AMES SALMONELLA TYPHIMURIUM, Strain/Indicator: TA1537, Metabolic Activation: RAT, LIVER, S-9, KC 500, Method: PREINCUBATION); “inactive; negative” (Test System: AMES SALMONELLA TYPHIMURIUM, Strain/Indicator: TA1538, Metabolic Activation: NONE, Method: PREINCUBATION); “inactive; negative” (Test System: AMES SALMONELLA TYPHIMURIUM, Strain/Indicator: TA1538, Metabolic Activation: RAT, LIVER, S-9, KC 500, Method: PREINCUBATION). Moreover, the mutagenic call is “inactive; negative” (Test System: E. COLI, Strain/Indicator: WP2 UVRA, Metabolic Activation: NONE, Method: PREINCUBATION) and “inactive; negative” (Test System: E. COLI, Strain/Indicator: WP2 UVRA, Metabolic Activation: RAT, LIVER, S-9, KC 500, Method: PREINCUBATION).
